# According to patent publication US20160264593A1 (priority 2013, published 2016):
# Where “and” joins values, the source holds several entries; their conditions need not be identical. Equal values may be shown once.
# Tests used:
# PP2A [1] = experiment: PP2A activity in mouse brains after IP dosing (PP2A immunoprecipitation phosphatase assay, malachite green); assay type: in vivo, Balb/c mice; design: Average Conc. (group of 3 mice): unit not given here; details: brain
# Procedure: (§1) Coomassie (Bradford) Protein Assay Kit (Pierce); PP2A Immunoprecipitation Phosphatase Assay Kit (Millipore); Lysate preparation for low endogenous phosphate: 20 mM imidazole-HCl, 2 mM EDTA, 2 mM EGTA, 1 mM PMSF, 1 mM benzamidine, 10 ug/ml each of aprotinin, leupeptin, antipain, soybean trypsin inhibitor; Normal Mouse IgG (Millipore); Okadaic acid (OA) (Tocris); DMSO (Sigma).
# (§2) • Species: Mus Musculus • Strain: Balb/c mice • Age: 6-8 weeks • Sex: female • Body weight: 18-22 g • Vendor: Shanghai Laboratory Animal Center, Shanghai, China; • Number of animals: 66 Balb/c mice plus spare
# (§3) The mice were kept in laminar flow rooms at constant temperature and humidity with 4 animals in each cage. • Temperature: 20-25 • Humidity: 40-70%. • Light cycle: 12 hours light and 12 hours dark. • Cages: Made of polycarbonate. The size is 29 cm×17.5 cm×12 cm (L×w×H). The bedding material is wood debris, which is changed once per week. • Diet: Animals had free access to irradiation sterilized dry granule food during the entire study period. • Water: Animals had free access to sterile drinking water. • Cage identification: the identification labels for each cage contained the following information: number of animals, sex, strain, date arrival, treatment, study number, group number, and the starting date of the treatment. • Animal identification: Animals were marked by ear punch.
# (§4) All the procedures related to animal handling, care, and the treatment in this study were performed according to guidelines approved by the Institutional Animal Care and Use Committee (IACUC) of WuXi AppTec (Shanghai), following the guidance of the Association for Assessment and Accreditation of Laboratory Animal Care (AAALAC). At the time of routine monitoring, the animals were checked and recorded for any effects of tumor growth on normal behavior such as mobility, food and water consumption (by looking only), body weight gain/loss, eye/hair matting and any other abnormal effect.
# (§5) 1. Proper amount of the compounds were weighed. 2. The compounds were dissolved in 4% sterile sodium bicarbonate. 3. All of the compounds should be well dissolved and clear. 4. The compounds should be kept cold once in solution and injected within an hour. 5. The mice were administered intraperitoneally according to their body weights, 20 g mouse was treated with 0.2 ml compound solution. 6. Mice were treated with vehicle and compounds according to Table 1. 7. 3 hours after the dose, 3 mice from each group were euthanized by
# (§6) CO2 exposure, and the brains and left lobe of livers were taken and snap-frozen in liquid nitrogen immediately. 6 hours after the dose, the other 3 mice from each group were euthanized by CO2 exposure, and the brains and left lobe of livers were taken and snap-frozen in liquid nitrogen immediately.
# (§7) Preparation of malachite green phosphate detection solution Added […] of Solution B to each 1 mL of Solution A, kept at room temperature during use. […] of mixed solution AB is used per assay well.
# (§8) Diluted 125 mL Phosphate Standard (Solution C) with 1125 mL of distilled water to make 0.1 mM working solution. The solution was used to prepare a phosphate standard curve as described in the table below.
# (§9) 1. 25 μL of each phosphate standards was transferred to wells of microliter plate. 2. Added 100 μL of Malachite Green Solution AB. Mixed carefully without creating bubbles. 3. Cultured for 15 minutes at RT. 4. Measured absorbance at a wavelength between 650 nm in a microliter plate reader.
# (§10) 1. Dissolved 1 mg Threonine Phosphopeptide (Catalog #12-219) in 1.10 mL of distilled water to prepare a 1 mM solution. 2. Aliquot peptide solution and stored at ˜20° C. as necessary.
# (§11) 1. Mouse brain or liver was homogenized using lysis buffer (25 g/L), centrifuged at 12000 g for 10 minutes at […], and the supernatants were collected. 2. The protein was quantitated, and 240 μg of mouse brain or liver lysate was taken to assay phosphatase activity. 3. […]
# PP2A [2] = experiment: PP2A activity in mouse livers after IP dosing (PP2A immunoprecipitation phosphatase assay, malachite green); assay type: in vivo, Balb/c mice; details: liver
# Procedure: as §1, §2, §3, §4, §5, §6, §7, §8, §9, §10, §11
# [3] = high dose IP (mpk: 100 1.5, 113 2.2, 151 1.6, 153 1.7, 157 2.0), 3 h
# [4] = high dose IP (mpk: 100 1.5, 113 2.2, 151 1.6, 153 1.7, 157 2.0), 6 h
# [5] = low dose IP (mpk: 100 0.75, 113 1.1, 151 0.8, 153 0.85, 157 1.0), 3 h
# [6] = low dose IP (mpk: 100 0.75, 113 1.1, 151 0.8, 153 0.85, 157 1.0), 6 h
# [7] = high dose IP (mpk: 100 1.5, 113 2.2, 151 1.6, 157 2.0), 3 h
# [8] = high dose IP (mpk: 100 1.5, 113 2.2, 151 1.6, 157 2.0), 6 h
smiles,measurement,setting,value
COC(=O)C1C2CCC(O2)C1C(=O)N1CCN(C)CC1 (centres unmarked) [Compound 151],Average Conc. (group of 3 mice),PP2A [1]; [3],2166.08
same,"Average Relative Activity (group, vehicle = 100)",PP2A [1]; [3],87.89
same,"Conc. (phosphate, single reading, per mouse)",PP2A [1]; [3],3168.39 and 2285.85 and 2334.84 and 1781.17 and 1662.47 and 1991.94
same,Mean Conc. (per mouse),PP2A [1]; [3],2310.34 and 1721.82 and 2580.16
same,Mean Conc. less IgG blank (per mouse),PP2A [1]; [3],2272.32 and 1683.79 and 2542.14
same,"Relative Conc. (per mouse, to vehicle)",PP2A [1]; [3],1.05 and 0.78 and 1.17
same,"Relative PP2A Activity (per mouse, vehicle = 100)",PP2A [1]; [3],92.20 and 68.32 and 103.14
same,Average Conc. (group of 3 mice),PP2A [1]; [4],2082.71
same,"Average Relative Activity (group, vehicle = 100)",PP2A [1]; [4],74.99
same,"Conc. (phosphate, single reading, per mouse)",PP2A [1]; [4],1999.47 and 1945.40 and 1958.41 and 2142.56 and 2296.42 and 2382.19
same,Mean Conc. (per mouse),PP2A [1]; [4],1972.43 and 2050.48 and 2339.31
same,Mean Conc. less IgG blank (per mouse),PP2A [1]; [4],1934.40 and 2012.45 and 2301.28
same,"Relative Conc. (per mouse, to vehicle)",PP2A [1]; [4],0.79 and 0.82 and 0.94
same,"Relative PP2A Activity (per mouse, vehicle = 100)",PP2A [1]; [4],69.65 and 72.46 and 82.86
same,Average Conc. (group of 3 mice),PP2A [1]; [5],1599.57
same,"Average Relative Activity (group, vehicle = 100)",PP2A [1]; [5],64.90
same,"Conc. (phosphate, single reading, per mouse)",PP2A [1]; [5],1332.79 and 1495.39 and 2603.34 and 1925.68 and 1273.84 and 1194.57
same,Mean Conc. (per mouse),PP2A [1]; [5],1414.09 and 2264.51 and 1234.21
same,Mean Conc. less IgG blank (per mouse),PP2A [1]; [5],1376.06 and 2226.48 and 1196.18
same,"Relative Conc. (per mouse, to vehicle)",PP2A [1]; [5],0.63 and 1.03 and 0.55
same,"Relative PP2A Activity (per mouse, vehicle = 100)",PP2A [1]; [5],55.83 and 90.34 and 48.53
same,Average Conc. (group of 3 mice),PP2A [1]; [6],1662.31
same,"Average Relative Activity (group, vehicle = 100)",PP2A [1]; [6],59.85
same,"Conc. (phosphate, single reading, per mouse)",PP2A [1]; [6],1514.30 and 1280.55 and 1980.77 and 1880.56 and 1846.62 and 1699.26
same,Mean Conc. (per mouse),PP2A [1]; [6],1397.42 and 1930.66 and 1772.94
same,Mean Conc. less IgG blank (per mouse),PP2A [1]; [6],1359.40 and 1892.63 and 1734.91
same,"Relative Conc. (per mouse, to vehicle)",PP2A [1]; [6],0.56 and 0.77 and 0.71
same,"Relative PP2A Activity (per mouse, vehicle = 100)",PP2A [1]; [6],48.95 and 68.15 and 62.47
same,Average Conc. (group of 3 mice),PP2A [2]; [7],472.47
same,"Average Relative Activity (group, vehicle = 100)",PP2A [2]; [7],112.5
same,"Conc. (phosphate, single reading, per mouse)",PP2A [2]; [7],387.96 and 418.01 and 367.5 and 404.51 and 757.23 and 772.47
same,Mean Conc. (per mouse),PP2A [2]; [7],402.99 and 386.01 and 764.85
same,Mean Conc. less IgG blank (per mouse),PP2A [2]; [7],357.51 and 340.53 and 719.38
same,"Relative Conc. (per mouse, to vehicle)",PP2A [2]; [7],0.85 and 0.81 and 1.71
same,"Relative PP2A Activity (per mouse, vehicle = 100)",PP2A [2]; [7],85.13 and 81.08 and 171.29
same,Average Conc. (group of 3 mice),PP2A [2]; [8],241.1
same,"Average Relative Activity (group, vehicle = 100)",PP2A [2]; [8],54.24
same,"Conc. (phosphate, single reading, per mouse)",PP2A [2]; [8],320.03 and 325.26 and 287.37 and 311.32 and 231.2 and 244.26
same,Mean Conc. (per mouse),PP2A [2]; [8],322.65 and 299.35 and 237.73
same,Mean Conc. less IgG blank (per mouse),PP2A [2]; [8],277.17 and 253.87 and 192.25
same,"Relative Conc. (per mouse, to vehicle)",PP2A [2]; [8],0.62 and 0.57 and 0.43
same,"Relative PP2A Activity (per mouse, vehicle = 100)",PP2A [2]; [8],62.36 and 57.11 and 43.25
same,Average Conc. (group of 3 mice),PP2A [2]; [5],423.92
same,"Average Relative Activity (group, vehicle = 100)",PP2A [2]; [5],100.94
same,"Conc. (phosphate, single reading, per mouse)",PP2A [2]; [5],430.64 and 449.36 and 437.61 and 446.75 and 521.21 and 530.8
same,Mean Conc. (per mouse),PP2A [2]; [5],440 and 442.18 and 526
same,Mean Conc. less IgG blank (per mouse),PP2A [2]; [5],394.52 and 396.7 and 480.53
same,"Relative Conc. (per mouse, to vehicle)",PP2A [2]; [5],0.94 (2×) and 1.14
same,"Relative PP2A Activity (per mouse, vehicle = 100)",PP2A [2]; [5],93.94 and 94.46 and 114.42
same,Average Conc. (group of 3 mice),PP2A [2]; [6],307.58
same,"Average Relative Activity (group, vehicle = 100)",PP2A [2]; [6],69.2
same,"Conc. (phosphate, single reading, per mouse)",PP2A [2]; [6],260.81 and 279.97 and 333.1 and 357.92 and 428.03 and 458.51
same,Mean Conc. (per mouse),PP2A [2]; [6],270.39 and 345.51 and 443.27
same,Mean Conc. less IgG blank (per mouse),PP2A [2]; [6],224.91 and 300.03 and 397.79
same,"Relative Conc. (per mouse, to vehicle)",PP2A [2]; [6],0.51 and 0.67 and 0.89
same,"Relative PP2A Activity (per mouse, vehicle = 100)",PP2A [2]; [6],50.6 and 67.5 and 89.49
